From patent publication US20120077957A1, “Lactam-Bridged Melanocortin Receptor-Specific Peptides” (PALATIN TECHNOLOGIES, INC., priority 2009, published 2012)
Like-named read-outs stand apart in the source and are kept apart here. Bridge positions count the residues as written; N and C are the ends. Square brackets hold non-standard residues; d marks the D form. Peptide text beside a SMILES is read from it. Orn = NCCC[C@H](N)C(=O)O

Biological target: T1, human MC4-R (Homo sapiens, UniProt P32245)
T1 construct: expressed in transfected cells; host or cells: HEK293 T-REx (tetracycline-regulated, Invitrogen); cell line from Palatin Technologies with license from the University of Michigan
Experiment: cAMP functional assay in HEK-293 T-REx cells expressing human MC4-R, induced with doxycycline 0.1 ng/mL (low density)
Format: cell-based
Settings: for Emax: HEK293-T-REx
From the text: A HEK293 cell line transfected with human MC4-R (from Palatin Technologies, US, with license from the University of Michigan) was used. The human MC4-R was introduced to HEK293 by using the T-REx™ System, Invitrogen. The T-REx™ System employs a tetracycline-regulated mammalian expression system that uses regulatory elements from the E. coli Tn10-encoded tetracycline (Tet) resistance operon. By use of the T-REx™ System, expression of the gene of interest, the human MC4-R gene, is repressed in the absence of tetracycline or doxycycline and induced in the presence of tetracycline or doxycycline (see T-REx™ System Manual, published by Invitrogen).
Cells were then counted and volume was adjusted to 5×10^4 cells per 200 μL.
The cells were then dispensed into 96-well plates (BD 353916) in 198 μL (about 5×10^4) cells/well and incubated for 10 minutes at 37° C. The compound to be tested was diluted with DMSO to a final concentration of 1 mM. Serial dilution was prepared in polypropylene removable 12-well library tube strips (VWR cat #83009-682). 120 μL of the 1 mM compound stock was pipetted in the second column on the plate.
2 μL of the standard, [Nle^4, D-Phe^7]alpha-Melanocyte Stimulating Hormone (NDP-α-MSH), or compound was added to the 96-well plate using the Janus robotic system. All assay samples were run in duplicate (i.e. each sample was in two low dox and two high dox plates, respectively). The plates were gently shaken and incubated for 15 minutes at 37° C. The reaction was stopped by adding 15 μL of lysis buffer per well and the plates were shakened for 30 minutes at room temperature.
Agonist stimulation of the MC4-R activates adenylate cyclase, which is an enzyme that catalyses the formation 3′,5′-cyclic adenosine monophosphate (cAMP) from adenosine triphosphate (ATP). […] Fluoresence ratios were then calculated as described in the CisBio HTRF kit, with GraphPad Prism software used to plot the change in fluorescence percent values versus cAMP concentration using the variable slope dose response curve and, based on calculated cAMP concentrations, to determine EC50 and Emax values. […]

[1] = maximal cAMP stimulation, NDP-α-MSH = 100%, doxycycline 0.1 ng/mL, averages of all comparable assays, read-out: Emax
[2] = human MC4-R cAMP assay, doxycycline 0.1 ng/mL, averages of all comparable assays, read-out: Ec50

T1 sequence (P32245 whole entry): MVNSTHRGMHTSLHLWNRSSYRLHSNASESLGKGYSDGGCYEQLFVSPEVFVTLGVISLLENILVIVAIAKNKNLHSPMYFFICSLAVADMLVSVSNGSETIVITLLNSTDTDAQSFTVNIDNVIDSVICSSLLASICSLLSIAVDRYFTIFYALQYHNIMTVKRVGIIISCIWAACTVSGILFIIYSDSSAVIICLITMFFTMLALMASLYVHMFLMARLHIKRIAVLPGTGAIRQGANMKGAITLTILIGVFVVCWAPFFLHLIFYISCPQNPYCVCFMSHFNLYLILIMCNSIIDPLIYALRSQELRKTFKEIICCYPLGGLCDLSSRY

| SMILES | Emax [%] | Emax [1] [%] | EC50 [2] [nM] | EC50 [nM] |
| --- | --- | --- | --- | --- |
| CCCC[C@H](NC(C)=O)C(=O)N[C@H]1CC(=O)NCCCC[C@@H](C(=O)O)NC(=O)[C@H](Cc2c[nH]c3ccccc23)NC(=O)[C@H](CCCNC(=N)N)NC(=O)[C@@H](Cc2ccccc2)NC(=O)[C@H](Cc2c[nH]cn2)NC1=O [Ac-Nle-cyclo(Asp-His-D-Phe-Arg-Trp-Lys)-OH, reference compound] | 81 | – | – | – |
| CC(=O)N[C@@H](CCCNC(=N)N)C(=O)N[C@H]1CCC(=O)NCCC[C@@H](C(=O)O)NC(=O)[C@H](Cc2c[nH]c3ccccc23)NC(=O)[C@H](CCCNC(=N)N)NC(=O)[C@@H](Cc2ccccc2)NC(=O)[C@H](Cc2c[nH]cn2)NC1=O [No. 3, Ac-Arg-cyclo(Glu-His-D-Phe-Arg-Trp-Orn)-OH] (Ac-REH[dF]RW[Orn]-OH; lactam 2-7) | – | 83 | 0.7 | – |
| CC(=O)N[C@@H](CCCNC(=N)N)C(=O)N[C@H]1CCC(=O)NCCC[C@@H](C(=O)O)NC(=O)[C@H](Cc2c[nH]c3ccccc23)NC(=O)[C@H](CCCNC(=N)N)NC(=O)[C@@H](Cc2ccccc2)NC(=O)[C@H](CCN)NC1=O [No. 5, Ac-Arg-cyclo(Glu-Dab-D-Phe-Arg-Trp-Orn)-OH] | – | 94 | 2 | – |
| CC(=O)N[C@@H](CCCNC(=N)N)C(=O)N[C@H]1CCC(=O)NCCC[C@@H](C(=O)O)NC(=O)[C@H](Cc2c[nH]c3ccccc23)NC(=O)[C@H](CCCNC(=N)N)NC(=O)[C@@H](Cc2ccccc2)NC(=O)[C@H](CCCN)NC1=O [No. 7, Ac-Arg-cyclo(GIu-Orn-D-Phe-Arg-Trp-Orn)-OH] | – | 92 | 4 | – |
| CC(=O)N[C@@H](CCCNC(=N)N)C(=O)N[C@H]1CCC(=O)NCCC[C@@H](C(=O)O)NC(=O)[C@H](Cc2c[nH]c3ccccc23)NC(=O)[C@H](CCCNC(=N)N)NC(=O)[C@@H](Cc2ccccc2)NC(=O)[C@H](CCCNC(=N)N)NC1=O [No. 9, Ac-Arg-cyclo(Glu-Arg-D-Phe-Arg-Trp-Orn)-OH] | – | 82 | 2 | – |
| CC(=O)N[C@@H](CCCNC(=N)N)C(=O)N[C@H]1CCC(=O)NCCC[C@@H](C(N)=O)NC(=O)[C@H](Cc2c[nH]c3ccccc23)NC(=O)[C@H](CCCNC(=N)N)NC(=O)[C@@H](Cc2ccccc2)NC(=O)[C@H](CCCNC(=N)N)NC1=O [No. 10, Ac-Arg-cyclo(Glu-Arg-D-Phe-Arg-Trp-Orn)-NH2] | – | 98 | – | – |
| CC(=O)N[C@@H](CCCNC(=N)N)C(=O)N[C@H]1CCC(=O)NCCC[C@@H](C(=O)O)NC(=O)[C@H](Cc2c[nH]c3ccccc23)NC(=O)[C@H](CCCNC(=N)N)NC(=O)[C@@H](Cc2ccccc2)NC(=O)[C@H](CCC(N)=O)NC1=O [No. 11, Ac-Arg-cyclo(Glu-Gln-D-Phe-Arg-Trp-Orn)-OH] | – | 81 | – | – |
| CC(=O)N[C@@H](CCCNC(=N)N)C(=O)N[C@H]1CCC(=O)NCCC[C@@H](C(N)=O)NC(=O)[C@H](Cc2c[nH]c3ccccc23)NC(=O)[C@H](CCCNC(=N)N)NC(=O)[C@@H](Cc2ccccc2)NC(=O)[C@@H]2C[C@@H](O)CN2C1=O [No. 14, Ac-Arg-cyclo(Glu-Hyp-D-Phe-Arg-Trp-Orn)-NH2] | – | 104 | – | – |
| CC(=O)N[C@@H](CCCNC(=N)N)C(=O)N[C@H]1CCC(=O)NCCC[C@@H](C(N)=O)NC(=O)[C@H](Cc2c[nH]c3ccccc23)NC(=O)[C@H](CCCNC(=N)N)NC(=O)[C@@H](Cc2ccccc2)NC(=O)[C@H](CCCNC(N)=O)NC1=O [No. 15, Ac-Arg-cyclo(Glu-Cit-D-Phe-Arg-Trp-Orn)-NH2] | – | 87 | – | – |
| CC(=O)N[C@@H](CCCNC(=N)N)C(=O)N[C@H]1CCC(=O)NCCC[C@@H](C(N)=O)NC(=O)[C@H](Cc2c[nH]c3ccccc23)NC(=O)[C@H](CCCNC(=N)N)NC(=O)[C@@H](Cc2ccccc2)NC(=O)[C@H](CCCCN)NC1=O [No. 16, Ac-Arg-cyclo(Glu-Lys-D-Phe-Arg-Trp-Orn)-NH2] (Ac-REK[dF]RW[Orn]-NH2; lactam 2-7) | – | 104 | 2 | – |
| CC(=O)NCC[C@@H]1NC(=O)[C@@H](NC(=O)[C@H](CCCNC(=N)N)NC(C)=O)CCC(=O)NCCC[C@@H](C(N)=O)NC(=O)[C@H](Cc2c[nH]c3ccccc23)NC(=O)[C@H](CCCNC(=N)N)NC(=O)[C@@H](Cc2ccccc2)NC1=O [No. 18, Ac-Arg-cyclo(Glu-Dab(Acetyl)-D-Phe-Arg-Trp-Orn)-NH2] | – | 75 | – | – |
| CC(=O)N[C@@H](CCCNC(=N)N)C(=O)N[C@H]1CCC(=O)NCCC[C@@H](C(=O)NC2CC2)NC(=O)[C@H](Cc2c[nH]c3ccccc23)NC(=O)[C@H](CCCNC(=N)N)NC(=O)[C@@H](Cc2ccccc2)NC(=O)[C@H](CCC(N)=O)NC1=O [No. 19, Ac-Arg-cyclo(Glu-Gln-D-Phe-Arg-Trp-Orn)-NH-cycProp] | – | 91 | 1 | – |
| CC(=O)N[C@@H](CCCNC(=N)N)C(=O)N[C@H]1CCC(=O)NCCC[C@@H](C(=O)O)NC(=O)[C@H](Cc2c[nH]c3ccccc23)NC(=O)[C@H](CCCNC(=N)N)NC(=O)[C@@H](Cc2ccccc2)NC(=O)[C@H](CC(N)=O)NC1=O [No. 20, Ac-Arg-cyclo(Glu-Asn-D-Phe-Arg-Trp-Orn)-OH] | – | 76 | 12 | – |
| CC(=O)N[C@H]1CCC(=O)NCCC[C@@H](C(N)=O)NC(=O)[C@H](Cc2c[nH]c3ccccc23)NC(=O)[C@H](CCCNC(=N)N)NC(=O)[C@@H](Cc2ccccc2)NC(=O)[C@H](CCC(N)=O)NC1=O [No. 21, Ac-cyclo(Glu-Gln-D-Phe-Arg-Trp-Orn)-NH2] (Ac-EQ[dF]RW[Orn]-NH2; lactam 1-6) | – | 49 | 26 | – |
| CC(=O)N[C@H](CCCNC(=N)N)C(=O)N[C@H]1CCCNC(=O)CC[C@@H](C(N)=O)NC(=O)[C@H](Cc2c[nH]c3ccccc23)NC(=O)[C@H](CCCNC(=N)N)NC(=O)[C@@H](Cc2ccccc2)NC(=O)[C@H](Cc2c[nH]cn2)NC1=O [No. 39, Ac-D-Arg-cyclo(Orn-His-D-Phe-Arg-Trp-Glu)-NH2] | – | 103 | 0.2 | – |
| CC(=O)N[C@@H](CCCNC(=N)N)C(=O)N[C@H]1CCCNC(=O)CC[C@@H](C(=O)O)NC(=O)[C@H](Cc2c[nH]c3ccccc23)NC(=O)[C@H](CCCNC(=N)N)NC(=O)[C@@H](Cc2ccccc2)NC(=O)[C@H](CCN)NC1=O [No. 42, Ac-Arg-cyclo(Orn-Dab-D-Phe-Arg-Trp-Glu)-OH] | – | 100 | – | – |
| CC(=O)N[C@@H](CCCNC(=N)N)C(=O)N[C@H]1CCCNC(=O)CC[C@@H](C(N)=O)NC(=O)[C@H](Cc2c[nH]c3ccccc23)NC(=O)[C@H](CCCNC(=N)N)NC(=O)[C@@H](Cc2ccccc2)NC(=O)[C@H](CC(N)=O)NC1=O [No. 46, Ac-Arg-cyclo(Orn-Asn-D-Phe-Arg-Trp-Glu)-NH2] | – | 88 | – | – |
| CC(=O)N[C@@H](CCCNC(=N)N)C(=O)N[C@H]1CC(=O)NCCCC[C@@H](C(N)=O)NC(=O)[C@H](Cc2c[nH]c3ccccc23)NC(=O)[C@H](CCCNC(=N)N)NC(=O)[C@@H](Cc2ccccc2)NC(=O)[C@H](CCN)NC1=O [reference compound] | – | 91 | – | – |
| CC(=O)N[C@@H](CCCNC(=N)N)C(=O)N[C@H]1CC(=O)NCCCC[C@@H](C(=O)O)NC(=O)[C@H](Cc2c[nH]c3ccccc23)NC(=O)[C@H](CCCNC(=N)N)NC(=O)[C@@H](Cc2ccccc2)NC(=O)[C@H](CCCNC(=N)N)NC1=O [reference compound] | – | 75 | – | – |
| CC(=O)N[C@@H](CCCNC(=N)N)C(=O)N[C@H]1CC(=O)NCCCC[C@@H](C(N)=O)NC(=O)[C@H](Cc2c[nH]c3ccccc23)NC(=O)[C@H](CCCNC(=N)N)NC(=O)[C@@H](Cc2ccccc2)NC(=O)[C@H](CCCNC(=N)N)NC1=O [reference compound] | – | 68 | – | – |
| CC(=O)N[C@@H](CCCNC(=N)N)C(=O)N[C@H]1CC(=O)NCCCC[C@@H](C(=O)O)NC(=O)[C@H](Cc2c[nH]c3ccccc23)NC(=O)[C@H](CCCNC(=N)N)NC(=O)[C@@H](Cc2ccccc2)NC(=O)[C@H](CCC(N)=O)NC1=O [reference compound] | – | 80 | 19 | – |
| CC(=O)N[C@@H](CCCNC(=N)N)C(=O)N[C@H]1CC(=O)NCCCC[C@@H](C(N)=O)NC(=O)[C@H](Cc2c[nH]c3ccccc23)NC(=O)[C@H](CCCNC(=N)N)NC(=O)[C@@H](Cc2ccccc2)NC(=O)[C@H](CCC(N)=O)NC1=O [reference compound] | – | 85 | – | 17 |
| CC(=O)N[C@@H](CCCNC(=N)N)C(=O)N[C@H]1CC(=O)NCCCC[C@@H](C(N)=O)NC(=O)[C@H](Cc2c[nH]c3ccccc23)NC(=O)[C@H](CCCNC(=N)N)NC(=O)[C@@H](Cc2ccccc2)NC(=O)[C@@H]2C[C@@H](O)CN2C1=O [reference compound] | – | 39 | – | – |
| CC(=O)N[C@@H](CCCNC(=N)N)C(=O)N[C@H]1CC(=O)NCCCC[C@@H](C(N)=O)NC(=O)[C@H](Cc2c[nH]c3ccccc23)NC(=O)[C@H](CCCNC(=N)N)NC(=O)[C@@H](Cc2ccccc2)NC(=O)[C@H](CCCNC(N)=O)NC1=O [reference compound] | – | 69 | – | – |
